target: human PD-L1 (Homo sapiens (Human), UniProt Q9NZQ7); assay: T cell activation luciferase reporter cell culture system (T Cell Activation Assay); format: cell-based; conditions: luciferase reporter assay; PD-L1 aAPC/CHO-K1 cells with PD-1 effector Jurkat T cells
Sequence (Q9NZQ7 19-290): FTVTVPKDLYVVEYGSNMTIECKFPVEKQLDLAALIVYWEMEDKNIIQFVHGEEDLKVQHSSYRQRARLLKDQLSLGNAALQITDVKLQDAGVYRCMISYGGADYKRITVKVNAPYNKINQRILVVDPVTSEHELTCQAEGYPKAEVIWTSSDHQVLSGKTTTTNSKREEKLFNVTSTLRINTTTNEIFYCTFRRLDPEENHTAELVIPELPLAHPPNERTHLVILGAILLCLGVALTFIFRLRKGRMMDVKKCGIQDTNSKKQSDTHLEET

| Structure (SMILES) | EC50 |
| --- | --- |
| COc1nc(-c2cccc(-c3ccnc(-c4cc(OC)c5nc(CN6CCOCC6)cn5c4)c3Cl)c2Cl)ccc1CNC1CCN(C(C)=O)CC1 [Example 475, 1-(4-(((6-(2-Chloro-3-(3-chloro-2-(8-methoxy-2-(morpholinomethyl)imidazo[1,2-a]pyridin-6-yl)pyridin-4-yl)phenyl)-2-methoxypyridin-3-yl)methyl)amino)piperidin-1-yl)ethan-1-one] | 3.77 µM |
| COCC(=O)N1CCC(NCc2ccc(-c3cccc(-c4ccnc(-c5ccc(CNC6CCN(C(C)=O)CC6)c(OC)c5)c4Cl)c3Cl)nc2OC)CC1 [Example 481, 1-(4-(((6-(3-(2-(4-(((1-Acetylpiperidin-4-yl)amino)methyl)-3-methoxyphenyl)-3-chloropyridin-4-yl)-2-chlorophenyl)-2-methoxypyridin-3-yl)methyl)amino)piperidin-1-yl)-2-methoxyethan-1-one] | 0.0159 µM |
| COc1cc(-c2nccc(-c3cccc(-c4ccc(CN5CC6(CCN(C(C)=O)CC6)C5)c(OC)n4)c3Cl)c2Cl)ccc1CN1CC2(CCN(C(C)=O)CC2)C1 [Example 485, 1-(2-((6-(3-(2-(4-((7-Acetyl-2,7-diazaspiro[3.5]nonan-2-yl)methyl)-3-methoxyphenyl)-3-chloropyridin-4-yl)-2-chlorophenyl)-2-methoxypyridin-3-yl)methyl)-2,7-diazaspiro[3.5]nonan-7-yl)ethan-1-one] | 0.212 µM |
| COc1nc(-c2ccnc(-c3cccc4c3CC[C@@H]4Nc3nc(OC)c(CNC[C@@H]4CCC(=O)N4)cc3C(F)(F)F)c2Cl)ccc1CNC1CCN(C(C)=O)CC1 [Example 486, (S)-5-((((6-(((S)-4-(5-(((1-Acetylpiperidin-4-yl)amino)methyl)-3′-chloro-6-methoxy-[2,4′-bipyridin]-2′-yl)-2,3-dihydro-1H-inden-1-yl)amino)-2-methoxy-5-(trifluoromethyl)pyridin-3-yl)methyl)amino)methyl)pyrrolidin-2-one] | 0.114 µM |
| COc1cc(-c2nccc(-c3cccc(-c4ccc(CN5CCC(O)CC5)c(OC)n4)c3Cl)c2Cl)ccc1CNC1CCN(C(C)=O)CC1 [Example 487, 1-(4-((4-(3-Chloro-4-(2-chloro-3-(5-((4-hydroxypiperidin-1-yl)methyl)-6-methoxypyridin-2-yl)phenyl)pyridin-2-yl)-2-methoxybenzyl)amino)piperidin-1-yl)ethan-1-one] | 0.0399 µM |
| COc1cc(-c2nccc(-c3cccc(-c4ccc(CN[C@H]5CC[C@H](OC)CC5)c(OC)n4)c3Cl)c2Cl)ccc1CNC1CCN(C(C)=O)CC1 [Example 488, 1-(4-((4-(3-Chloro-4-(2-chloro-3-(6-methoxy-5-((((1r,4r)-4-methoxycyclohexyl)amino)methyl)pyridin-2-yl)phenyl)pyridin-2-yl)-2-methoxybenzyl)amino)piperidin-1-yl)ethan-1-one] | 0.034 µM |
| COCC(=O)N1CCC(NCc2ccc(-c3cccc(-c4ccnc(-c5ccc(CN6CC7(CNC(=O)C7)C6)c(OC)c5)c4Cl)c3Cl)nc2OC)CC1 [Example 490, 2-(4-(3-Chloro-4-(2-chloro-3-(6-methoxy-5-(((1-(2-methoxyacetyl)piperidin-4-yl)amino)methyl)pyridin-2-yl)phenyl)pyridin-2-yl)-2-methoxybenzyl)-2,6-diazaspiro[3.4]octan-7-one] | 0.0179 µM |
| COc1cc(-c2nccc(-c3cccc(-c4ccc(CNC5CCOCC5)c(OC)n4)c3Cl)c2Cl)ccc1CN1CC2(C1)CN(C(C)=O)C2 [Example 492, 1-(6-(4-(3-chloro-4-(2-chloro-3-(6-methoxy-5-(((tetrahydro-2H-pyran-4-yl)amino)methyl)pyridin-2-yl)phenyl)pyridin-2-yl)-2-methoxybenzyl)-2,6-diazaspiro[3.3]heptan-2-yl)ethan-1-one] | 0.0185 µM |
| COc1cc(-c2nccc(-c3cccc(-c4ccc(CN5CC6(CNC(=O)C6)C5)c(OC)n4)c3Cl)c2Cl)ccc1CNC1CCOCC1 [Example 495, 2-((6-(2-Chloro-3-(3-chloro-2-(3-methoxy-4-(((tetrahydro-2H-pyran-4-yl)amino)methyl)phenyl)pyridin-4-yl)phenyl)-2-methoxypyridin-3-yl)methyl)-2,6-diazaspiro[3.4]octan-7-one] | 0.0228 µM |
| COc1cc(-c2nccc(-c3cccc(-c4ccc(CN5CC6(CNC(=O)C6)C5)c(OC)n4)c3Cl)c2Cl)ccc1CN[C@H]1C[C@](C)(O)C1 [Example 496, 2-((6-(2-Chloro-3-(3-chloro-2-(4-((((1r,3r)-3-hydroxy-3-methylcyclobutyl)amino)methyl)-3-methoxyphenyl)pyridin-4-yl)phenyl)-2-methoxypyridin-3-yl)methyl)-2,6-diazaspiro[3.4]octan-7-one] | 0.0291 µM |
| COc1cc(-c2nccc(-c3cccc(-c4ccc(CN5CC6(CNC(=O)C6)C5)c(OC)n4)c3Cl)c2Cl)ccc1CN1CC(C)(O)C1 [Example 498, 2-((6-(2-Chloro-3-(3-chloro-2-(4-((3-hydroxy-3-methylazetidin-1-yl)methyl)-3-methoxyphenyl)pyridin-4-yl)phenyl)-2-methoxypyridin-3-yl)methyl)-2,6-diazaspiro[3.4]octan-7-one] | 0.0265 µM |
| COc1cc(-c2nccc(-c3cccc(-c4ccc(CN5CC6(CNC(=O)C6)C5)c(OC)n4)c3Cl)c2Cl)ccc1CN[C@H]1CC[C@@H](O)CC1 [Example 503, 2-((6-(2-Chloro-3-(3-chloro-2-(4-((((1s,4s)-4-hydroxycyclohexyl)-amino)-methyl)-3-methoxyphenyl)pyridin-4-yl)phenyl)-2-methoxypyridin-3-yl)methyl)-2,6-diazaspiro[3.4]octan-7-one] | 0.0362 µM |
| COc1cc(-c2nccc(-c3cccc(-c4ccc(CNCC5(O)CC5)c(OC)n4)c3Cl)c2Cl)ccc1CNCC1(O)CC1 [Example 504, 1-((((6-(2-Chloro-3-(3-chloro-2-(4-((((1-hydroxycyclopropyl)methyl)amino)methyl)-3-methoxyphenyl)pyridin-4-yl)phenyl)-2-methoxypyridin-3-yl)methyl)amino)methyl)cyclopropan-1-ol] | 0.0364 µM |
| COc1cc(-c2nccc(-c3cccc(-c4ccc(CNCC(F)F)c(OC)n4)c3Cl)c2Cl)ccc1CNCC(F)F [Example 505, N-((6-(2-Chloro-3-(3-chloro-2-(4-(((2,2-difluoroethyl)amino)methyl)-3-methoxyphenyl)pyridin-4-yl)phenyl)-2-methoxypyridin-3-yl)methyl)-2,2-difluoroethan-1-amine] | ≥ 10 µM |

Other lines, results leading:

| EC50 | Structure (SMILES) |
| --- | --- |
| ≥ 10 µM | COc1nc(-c2cccc(-c3ccnc(-c4cc(OC)c5nc(CN6CCC(F)(F)C6)cn5c4)c3Cl)c2Cl)ccc1CNC1CCN(C(C)=O)CC1 [Example 476, 1-(4-(((6-(2-Chloro-3-(3-chloro-2-(2-((3,3-difluoropyrrolidin-1-yl)methyl)-8-methoxyimidazo[1,2-a]pyridin-6-yl)pyridin-4-yl)phenyl)-2-methoxypyridin-3-yl)methyl)amino)piperidin-1-yl)ethan-1-one] |
| 0.0593 µM | COc1cc(-c2nccc(-c3cccc(-c4ccc(CNC5CCN(C(C)=O)CC5)c(OC)n4)c3Cl)c2Cl)ccc1CNCCN1CCNC(=O)C1 [Example 479, 4-(2-((4-(4-(3-(5-(((1-Acetylpiperidin-4-yl)amino)methyl)-6-methoxypyridin-2-yl)-2-chlorophenyl)-3-chloropyridin-2-yl)-2-methoxybenzyl)amino)ethyl)piperazin-2-one] |
| 0.0203 µM | COc1cc(-c2nccc(-c3cccc(-c4ccc(CNC5CCN(C(C)=O)CC5)c(OC)n4)c3Cl)c2Cl)ccc1CN1CC2(C1)CN(C(C)=O)C2 [Example 482, 1-(4-(((6-(3-(2-(4-((6-acetyl-2,6-diazaspiro[3.3]heptan-2-yl)methyl)-3-methoxyphenyl)-3-chloropyridin-4-yl)-2-chlorophenyl)-2-methoxypyridin-3-yl)methyl)amino)piperidin-1-yl)ethan-1-one] |
| 0.195 µM | COc1cc(-c2nccc(-c3cccc(-c4ccc(CNC5CCSCC5)c(OC)n4)c3Cl)c2Cl)ccc1CNC1CCSCC1 [Example 484, N-((6-(2-Chloro-3-(3-chloro-2-(3-methoxy-4-(((tetrahydro-2H-thiopyran-4-yl)amino)methyl)phenyl)pyridin-4-yl)phenyl)-2-methoxypyridin-3-yl)methyl)tetrahydro-2H-thiopyran-4-amine] |
| 0.0285 µM | COc1cc(-c2nccc(-c3cccc(-c4ccc(CNC5CCN(C(C)=O)CC5)c(OC)n4)c3Cl)c2Cl)ccc1CN1CCC[C@@H](O)C1 [Example 489, (R)-1-(4-(((6-(2-Chloro-3-(3-chloro-2-(4-((3-hydroxypiperidin-1-yl)methyl)-3-methoxyphenyl)pyridin-4-yl)phenyl)-2-methoxypyridin-3-yl)methyl)amino)piperidin-1-yl)ethan-1-one] |
| 0.0318 µM | COCC(=O)N1CCC(NCc2ccc(-c3cccc(-c4ccnc(-c5ccc(CN6CC7(C6)CN(C(C)=O)C7)c(OC)c5)c4Cl)c3Cl)nc2OC)CC1 [Example 491, 1-(4-(((6-(3-(2-(4-((6-Acetyl-2,6-diazaspiro[3.3]heptan-2-yl)methyl)-3-methoxyphenyl)-3-chloropyridin-4-yl)-2-chlorophenyl)-2-methoxypyridin-3-yl)methyl)amino)piperidin-1-yl)-2-methoxyethan-1-one] |
| 0.0302 µM | COc1cc(-c2nccc(-c3cccc(-c4ccc(CN5CC6(CNC(=O)C6)C5)c(OC)n4)c3Cl)c2Cl)ccc1CN1CC2(CC(O)C2)C1 [Example 497, 2-((6-(2-Chloro-3-(3-chloro-2-(4-((6-hydroxy-2-azaspiro[3.3]heptan-2-yl)methyl)-3-methoxyphenyl)pyridin-4-yl)phenyl)-2-methoxypyridin-3-yl)methyl)-2,6-diazaspiro[3.4]octan-7-one] |
| 0.0289 µM | COc1cc(-c2nccc(-c3cccc(-c4ccc(CN5CC6(CNC(=O)C6)C5)c(OC)n4)c3Cl)c2Cl)ccc1CN[C@H]1CC[C@H](O)CC1 [Example 502, 2-((6-(2-Chloro-3-(3-chloro-2-(4-((((1r,4r)-4-hydroxycyclohexyl)-amino)-methyl)-3-methoxyphenyl)pyridin-4-yl)phenyl)-2-methoxypyridin-3-yl)methyl)-2,6-diazaspiro[3.4]octan-7-one] |

Source: patent publication US20240246964A1 (Arbutus Biopharma Corporation, priority 2021, published 2024)
